The structures appear in SMILES notation.

This data set has as its target Multidrug resistance-associated protein 1 (Homo sapiens, UniProt P33527). Description: TP_TRANSPORTER: inhibition of Rhodamine 123 efflux (R123: 0.8 ug/mL, GF109203X: 10 uM) in HL60/AR cells. Format: functional, cell-based.

Sequence of Multidrug resistance-associated protein 1 (P33527 whole entry): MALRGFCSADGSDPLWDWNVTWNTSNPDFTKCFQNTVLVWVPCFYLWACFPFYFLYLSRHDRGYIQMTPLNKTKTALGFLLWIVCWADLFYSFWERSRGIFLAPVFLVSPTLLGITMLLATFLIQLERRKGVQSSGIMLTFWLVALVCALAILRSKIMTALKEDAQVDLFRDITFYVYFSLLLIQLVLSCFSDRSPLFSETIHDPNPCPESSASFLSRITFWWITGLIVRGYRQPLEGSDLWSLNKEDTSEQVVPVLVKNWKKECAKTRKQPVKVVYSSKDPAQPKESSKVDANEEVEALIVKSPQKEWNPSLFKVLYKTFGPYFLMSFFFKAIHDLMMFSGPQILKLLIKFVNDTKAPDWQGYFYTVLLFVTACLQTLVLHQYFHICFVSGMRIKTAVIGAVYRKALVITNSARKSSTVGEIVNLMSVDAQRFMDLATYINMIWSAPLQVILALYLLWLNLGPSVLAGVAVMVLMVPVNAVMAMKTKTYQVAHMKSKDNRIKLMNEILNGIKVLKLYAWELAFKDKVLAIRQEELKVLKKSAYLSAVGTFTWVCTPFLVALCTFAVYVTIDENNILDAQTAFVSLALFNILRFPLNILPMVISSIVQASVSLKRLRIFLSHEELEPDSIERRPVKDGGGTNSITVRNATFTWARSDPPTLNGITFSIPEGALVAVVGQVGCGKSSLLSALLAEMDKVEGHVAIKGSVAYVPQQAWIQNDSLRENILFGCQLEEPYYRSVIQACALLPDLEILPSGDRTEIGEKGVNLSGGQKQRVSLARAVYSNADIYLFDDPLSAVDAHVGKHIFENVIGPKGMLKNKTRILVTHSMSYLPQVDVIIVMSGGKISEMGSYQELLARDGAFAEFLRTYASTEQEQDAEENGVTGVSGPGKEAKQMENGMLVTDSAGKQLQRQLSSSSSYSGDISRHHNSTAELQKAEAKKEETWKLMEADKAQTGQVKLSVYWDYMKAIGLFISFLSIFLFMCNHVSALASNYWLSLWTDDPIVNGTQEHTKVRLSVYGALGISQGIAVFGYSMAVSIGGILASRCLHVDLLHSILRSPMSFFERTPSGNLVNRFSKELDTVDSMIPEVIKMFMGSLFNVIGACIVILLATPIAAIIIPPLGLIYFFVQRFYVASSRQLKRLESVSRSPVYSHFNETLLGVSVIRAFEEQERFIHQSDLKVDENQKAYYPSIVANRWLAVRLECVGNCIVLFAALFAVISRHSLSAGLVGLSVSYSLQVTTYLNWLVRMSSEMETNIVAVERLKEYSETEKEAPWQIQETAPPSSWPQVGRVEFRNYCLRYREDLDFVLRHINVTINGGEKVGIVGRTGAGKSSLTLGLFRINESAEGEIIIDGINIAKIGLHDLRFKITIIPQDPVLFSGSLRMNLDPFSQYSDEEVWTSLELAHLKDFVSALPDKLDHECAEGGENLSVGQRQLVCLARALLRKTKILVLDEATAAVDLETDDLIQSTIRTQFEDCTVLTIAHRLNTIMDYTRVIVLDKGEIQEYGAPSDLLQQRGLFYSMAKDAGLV

Consider `CN(C)CCCn1cc(C2=C(c3c[nH]c4ccccc34)C(=O)NC2=O)c2ccccc21` [GF-109203], for which the Activity result was “inhibitor [+]”.

(Values after ChEMBL document CHEMBL2074252, “The specific bisindolylmaleimide PKC-inhibitor GF 109203X efficiently modulates MRP-associated multiple drug resistance” (Biochem Biophys Res Commun, 1995).)
